“And” between values parts separate entries of the source, which are not always exact repeats. Identical values can stand only once.
Tests used:
OPN = OPN antibody staining of brains and lymph nodes of SIV-infected animals; type: in vivo, Rhesus macaques
Description: (§1) These monkeys were then treated with MGBG as described.

adenosine deaminase = assay: QRT-PCR in CD14/CD16-separated cell fractions, adenosine deaminase RNA; type: cell-based, human; conditions: 10 μM MGBG
Description: (§2) The changes induced by MGBG in different blood cell types were determined for osteopontin and adenosine deaminase and 7 other genes. For this experiment, blood samples were obtained from 6 healthy controls (3 men/3 women from 20 to 55 years of age) and mononuclear cells were isolated via Percoll gradient centrifugation. The cells were then incubated for 3 hours in RPMI media plus 10% fetal bovine serum at 37 C. At that point MGBG was added to 10 μM to half of each sample and then the cells were incubated at 37 C for 20 more hours. The cells were then bound to magnetic beads coated with antibodies to human CD16. Bound cells (CD16 expressing) were separated from unbound cells using an AutoMACs according to manufacturer's instructions (Miltenyi, Auburn Calif.). Then CD16+ cells are released from the magnetic beads and both the CD16+ and CD16− cells are combined with magnetic beads coated with antibodies to human CD14. Antibody bound and unbound cells were then separated using the AutoMACs machine. […] Cells that neither express CD16 nor CD14 (the −/− Cells). This is mostly T lymphocytes; 2. Cells that only express CD16. This includes contaminating granulocytes not removed by Percoll centrifugation and CD16+ monocytes with very low CD14 expression; 3. Cells that express both CD16 and CD14. This includes monocytes that are expressing CD16+ and macrophages (which express high levels of both); and 4. Cells that only express CD14. This would include most normal human monocytes. After separation, cells of each fraction are washed with PBS and the number of viable cells determined by trypan blue exclusion. RNA is then prepared from each cell group using TRIZOL, according to manufacturer's instructions.

LILRA1 [1] = assay: Microarray analysis of mononuclear cells, LILRA1; type: cell-based, human; conditions: for LILRA1 signal +, Average: 10 μM MGBG
Description: (§3) Blood samples were obtained from HIV infected patients (N=9) with positive viral load and reduced CD4 counts, and non-HIV infected, healthy controls (N=6). Blood was collected into heparin anticoagulant tubes and mononuclear cells were isolated by Percoll gradient centrifugation. The cells from each sample were split into 2: one-half receives MGBG at concentration of 10 μM and the other half received no treatment. All samples were then cultured overnight in RPMI media with 10% fetal bovine serum at 37° C. under non-adherent conditions. The next day cells were collected by centrifugation, washed one time with PBS, and lysed by resuspension in TRIZOL, and total RNA was prepared according to manufacturer's instructions (Invitrogen, Carlsbad, Calif.). […] The RNA was then amplified for microarray analysis using a 2 cycle amplification protocol according to the manufacturer's instructions (Affymetrix, Santa Clara, Calif.). The amplified RNAs were then hybridized to Human Genome U133 plus 2.0 microarrays (Affymetrix) and expression data was obtained using an Affymetrix scanner and GCOS protocols. Microarray data was analyzed with GeneSpring Microarray Suite. Results were normalized using a set of 100 probe sets determined by the manufacturer to have relatively invariant expression across most cell types.

TNFα [2] = assay: QRT-PCR in CD14/CD16-separated cell fractions, TNFα RNA; type: cell-based, human; conditions: monocytes, 10 μM MGBG, p=0.03
Description: as §2, with “Cells that express both CD16 and CD14. This includes monocytes that are expressing CD16+ and macrophages (which express high levels of both); and 4. Cells that only express CD14. This would include most normal human monocytes.” left out, “RNA is then prepared from each cell group using TRIZOL, according to manufacturer's instructions.” left out

SGNE3 = assay: Quantitative RT-PCR, unsorted mononuclear cells, SGNE3; type: cell-based, human
Description: (§4) To evaluate the effect of MGBG on gene expression, blood samples were obtained from patients (N=18, 10 HIV-infected and 8 Healthy Controls). Mononuclear cells were isolated via Percoll gradient centrifugation. The cells were split into two tubes, one treated with 10 μM of MGBG and the other non-treated. The cells were then cultured overnight in RPMI media plus 10% fetal bovine serum at 37 C under non-adherent conditions, collected, lysed using Trizol solution, and total RNA prepared according to manufacturer's instructions (Invitrogen, Carlsbad, Calif.).
(§5) Approximately 200 ng of total RNA prepared from each sample was converted to cDNA using the First Strand cDNA Synthesis Kit for RT-PCR [AMV] kit (Roche Applied Diagnostics, Indianapolis, Ind.) according to manufacturer's instructions. Around 5 ng of cDNA sample was then used for PCR performed on a LightCycler (Roche Applied Diagnostics, Indianapolis, Ind.) using the LightCycler FastStart DNA Master SYBR Green I kit. PCR conditions are as follows: 1 cycle of denaturation at 95° C. for 10 minutes, followed by 45 cycles of 95° C. for 10 seconds, 68° C. for 10 seconds, and 72° C. for 16 seconds.
(§6) The sequences of gene-specific primers evaluated are listed below. All samples were also amplified with the human β-actin LightCycler-Primer set (Roche Diagnostics).

OPN protein = assay: OPN production inhibition assay in un-stimulated PBMC cultures, OPN protein; type: cell-based; conditions: 10 μM
Description: 10 μM of each drug was added to un-stimulated PBMC cultures at time=0 and cells were harvested 1,3, and 6 days later for quantitative OPN RNA and protein production analysis.

osteopontin = assay: QRT-PCR in CD14/CD16-separated cell fractions, osteopontin RNA; type: cell-based, human; conditions: for osteopontin RNA, median change relative to no MGBG: 10 μM MGBG
Description: as §2

SIVmac251 = assay: SIV-infected, CD8-depleted rhesus macaques treated with MGBG: disease; type: in vivo
Description: as §1

TNFα [3] = assay: Microarray analysis of mononuclear cells, TNFα probe; type: cell-based, human
Description: as §3

SPP1 = assay: Microarray analysis of mononuclear cells, SPP1; type: cell-based, human; conditions: for SPP1 signal +, Average: 10 μM MGBG
Description: as §3

FCGR1a = assay: Quantitative RT-PCR, unsorted mononuclear cells, FCGR1A; type: cell-based, human
Description: as §4, §5, §6

LILRA1 [4] = assay: Quantitative RT-PCR, unsorted mononuclear cells, LILRA1; type: cell-based, human
Description: as §4, §5, §6

[5] = average of control samples (C6-, M6-177)
[6] = 10 μM, individual donor samples
[7] = presence of 10 μM MGBG overnight, individual donor samples
[8] = 10 μM MGBG, all unsorted samples
[9] = 10 μM MGBG overnight, individual samples

CC(/C=N/NC(=N)N)=N\NC(=N)N [MGBG, 1,1′ [methylethanediylidene]dinitrilodiguanidine]
OPN in brains, antibody staining (OPN; FIG. 10, treated SIV-infected animals): complete removal of OPN
OPN staining in lymph nodes (OPN; FIG. 11, treated animals B146 and CB18): markedly decreased levels of OPN
ADA transcription median change (increase) (adenosine deaminase; CD14+ monocytes, p=0.0156): 10.8 fold
ADA transcription median change (increase) (adenosine deaminase; CD14/CD16++ cells): 2.8 fold
ADA transcription change (adenosine deaminase; Double negative cells and CD16+ cells): did not change significantly
LILRA1 signal +, Average (LILRA1 [1]; average of HIV samples): 77
LILRA1 signal +, Average (LILRA1 [1]; [5]): 133
LILRA1 fold change, ON/MGBG ratio (down-regulation) (LILRA1 [1]; [6]): 6.5 fold and 1.8 fold and 0.3 fold (2×) and 11.6 fold and 3.7 fold and 3.1 fold and 13.8 fold and 2.4 fold and 0.5 fold and 1.1 fold and 2.9 fold and 14.6 fold and 1.3 fold (2×)
samples with LILRA1 down-regulated more than 2 fold (LILRA1 [1]; HIV samples): 5 of 9
LILRA1 signal + (LILRA1 [1]; [7]): 40 and 129 and 10 and 65 and 246 and 73 and 42 and 99 and 94 and 212 and 277 and 21 and 1 and 15 and 164
TNFα RNA median signal relative to no MGBG (TNFα [2]): 0.32
Fold change SGNE3 by QRT-PCR (SGNE3; 10 μM MGBG overnight, untreated vs treated, negative = fold reduction, individual samples): 1.58 fold and −3.25 fold and −1.30 fold and −2.39 fold and −2.43 fold and −1.48 fold and 1.61 fold and −3.61 fold and −1.66 fold and −1.13 fold and 1.79 fold and −7.11 fold and −2.50 fold and −4.41 fold
Fold change SGNE3, AVERAGE (SGNE3; [8]): −1.9 fold
Fold change SGNE3, MAX (SGNE3; [8]): 1.8 fold
Fold change SGNE3, MIN (SGNE3; [8]): −7.1 fold
SGNE3 regulation by MGBG (SGNE3; level of inhibition in most samples is low): mostly down-regulated
SGNE3 % >2 fold Changed (SGNE3; share of samples, 10 μM MGBG): 50%
OPN protein production (OPN protein): Complete inhibition
osteopontin RNA, median change relative to no MGBG (osteopontin; CD14+ monocyte fraction): 0.21
osteopontin RNA median reduction (osteopontin; CD14+ monocyte fraction, 10 μM MGBG 20 h, healthy controls, p=0.03): 4.8 fold
osteopontin RNA, median change relative to no MGBG (osteopontin; CD14/16++ cells, not significant): 0.61
osteopontin RNA, median change relative to no MGBG (osteopontin; CD16+ cells, not significant): 1.12
osteopontin RNA, median change relative to no MGBG (osteopontin; double negative cells, not significant): 0.70
SIV-associated macrophages in the frontal cortex (SIVmac251; 4 doses of MGBG, compared to non-treated): absence of SIV-associated macrophages
macrophage infiltration in brains (SIVmac251; FIG. 9, treated infected macaques): no pathology was observed
illness (AIDS and dementia) (SIVmac251; both trials, treated animals): none of the treated animals became ill
SIVE or DRG infiltration (SIVmac251; first trial, 200, 300, 400 mg/m^2 weekly, 2 treated animals): no indications of SIVE or DRG infiltration
SIV disease (SIVmac251; second trial, bi-weekly 250 mg/m^2, 2 treated animals): no evidence for SIV disease
samples less than 2 fold changed, TNFα probe (TNFα [3]; HIV infected individuals): 6 out of 9
samples less than 2 fold changed, TNFα probe (TNFα [3]; controls): 2 out of 6
average change for the TNFα Probe set, up-regulated (TNFα [3]; presence of MGBG, all samples): 8.7 fold
SPP1 signal +, Average (SPP1; average of HIV samples): 498
SPP1 signal +, Average (SPP1; [5]): 633
SPP1 fold change, ON/MGBG ratio (down-regulation) (SPP1; [6]): 60.5 fold and 47.8 fold and 11.5 fold and 43.9 fold and 0.7 fold and 7.0 fold and 2.3 fold and 438.8 fold and 1.4 fold and 5.7 fold and 5.9 fold and 68.0 fold and 57.9 fold and 4.2 fold and 1.2 fold
samples with 2 fold or greater reductions in SPP1 signal (SPP1; of the 15 samples evaluated): 12
SPP1 signal + (SPP1; [7]): 1480 and 113 and 34 and 143 and 458 and 53 and 81 and 264 and 232 and 1519 and 1647 and 64 and 22 and 1684 and 487
Fold change FCGR1A by QRT-PCR (FCGR1a; [9]): −1.61 fold and −1.84 fold and −1.01 fold and −1.72 fold and −3.73 fold and 1.72 fold and 5.94 fold and 2.39 fold and −1.97 fold and 19.03 fold and 1.16 fold and −0.41 fold and −0.43 fold and −10.78 fold and −17.15 fold and −2.22 fold and −3.86 fold and 1.05 fold
FCGR1A AVERAGE (FCGR1a; 10 μM MGBG, all samples): 2.25 fold
FCGR1A MAX (FCGR1a; 10 μM MGBG, all samples): 19.03 fold
FCGR1A MIN (FCGR1a; 10 μM MGBG, all samples): −17.15 fold
Fold change LILRA1 by QRT-PCR (LILRA1 [4]; [9]): −1.91 fold and 1.01 fold and −3.10 fold and 1.31 fold and −2.87 fold and 1.52 fold and −3.97 fold and −2.27 fold and 1.11 fold and 1.34 fold and −4.79 fold and −1.31 fold and 1.28 fold and 13.45 fold
LILRA1 AVERAGE (LILRA1 [4]; 10 μM MGBG, all samples): 1.71 fold
LILRA1 MAX (LILRA1 [4]; 10 μM MGBG, all samples): 13.45 fold
LILRA1 MIN (LILRA1 [4]; 10 μM MGBG, all samples): −4.79 fold
